Source: patent US20260263471A1, “Methods of Treating Myelofibrosis” (Kartos Therapeutics, Inc., priority 2024, published 2026)
“Also recorded” adds a separate entry of the source. Where two headings read alike, the source gives them in different places.

Legend:
[1] = tested on: patients who discontinue ruxolitinib; conditions: after discontinuing ruxolitinib; 95% CI 8.0-22.7; cited from earlier work
[2] = tested on: JAKi-naive MF patients with a suboptimal response to ruxolitinib; test: Pooled published phase 3 data, suboptimal responders to ruxolitinib; type: in vivo, human
Excerpt: Data was pooled from published phase 3 studies for patients treated with ruxolitinib in the JAKi-naive MF setting (Verstovsek 2012; Mesa 2017; Pemmaraju 2023; Rampal 2023) to understand the natural history of patients with MF who achieve a suboptimal response to ruxolitinib, as defined in Study KRT-232-115 (e.g., a subject with an SVR>0% but <35% and a TSS reduction >0% but <50%) (FIG. 12).
FIG. 12 illustrates suboptimal spleen and symptom responders from the pooled phase 3 ruxolitinib data, including patients treated with ruxolitinib monotherapy with and without placebo. SVR data was obtained for 465 subjects from the three studies COMFORT-1, […]-1, and TRANSFORM-1 (Verstovsek 2012; Mesa 2017; Pemmaraju 2023). TSS data was obtained for 528 subjects from the three studies. Week-24 data used as a proxy to Week-18 suboptimal response assessment.

[3] = tested on: ruxolitinib-treated patients with myelofibrosis; conditions: cited from earlier work
MF patients = conditions: cited from earlier work
p21 = p21 expression in MF patient cells; type: cell-based, human; conditions: single agent alone
p21 mRNA = test: p53 pathway activation, non-clinical pharmacology; conditions: direct transcriptional target of p53
Excerpt: (§1) Preclinical studies conducted with navtemadlin have yielded promising results in in vitro, ex vivo, and in vivo experiments, representing solid tumors and hematologic malignancies, including MF and acute myeloid leukemia secondary to an MPN.

[4] = tested on: xenograft models, tumor types harboring TP53WT; test: Non-clinical xenograft models; type: in vivo; conditions: various genetic backgrounds
Excerpt: as §1

[5] = Standard panel of assays: mutagenicity, genotoxicity, phototoxicity
Excerpt: Repeat-dose toxicity studies of up to 13 weeks duration in rats and monkeys, along with in vitro and in vivo safety pharmacology studies, have been completed for navtemadlin. […] Nonclinical embryofetal toxicity and fertility studies have not been conducted for navtemadlin due to the well documented requirement for p53/MDM2 control during embryonic and fetal development. Based on its mechanism of action, navtemadlin alters cell proliferation and is expected to result in adverse effects on embryofetal viability and development.

[6] = tested on: subjects with MF who were relapsed or refractory to JAK inhibitor treatment; test: KRT-232-101A Phase 2 open-label dose-finding study, navtemadlin monotherapy; type: in vivo, human; conditions: for TSS50 at Week 24 by MFSAF v4.0 (proportion of subjects) / SVR35 at Week 24 by Central Review (proportion of subjects): Rux-relapsed/refractory MF; for TSS50 at Week 24 by MFSAF v4.0 (proportion of subjects): n = 14; for SVR35 at Week 24 by Central Review (proportion of subjects): n = 14 with ruxolitinib washout ≥28 days; for circulating CD34+ cells: single agent
Method: KRT-232-101A is a Phase 2 open-label, dose-finding study designed to evaluate the safety and efficacy of navtemadlin in subjects with MF who were relapsed or refractory to JAK inhibitor treatment. Subjects were treated with one of four dosing schedules to determine the optimal Phase 2 dose and schedule: navtemadlin 120 mg QD for Days 1-7 on a […]; navtemadlin 240 mg QD for Days 1-7 on a 21-day cycle; navtemadlin 240 mg QD for Days 1-7 on a 28-day cycle; or navtemadlin 240 mg QD for Days 1-5 on a 28-day cycle.
Fourteen (14) of these subjects had ruxolitinib washout of ≥28 days prior to the baseline imaging assessment; efficacy results are reported for this subset of patients to control for the effects on the spleen after ruxolitinib discontinuation prior to Cycle 1 Day 1. Median treatment duration for all 32 subjects was 175.5 days (range, 2-469).

[7] = tested on: treatment-naïve patients with MF; test: KRT-232-114 Phase 2 open-label study, navtemadlin monotherapy; type: in vivo, human; conditions: Rux-naïve MF, 240 mg Days 1-7 of 28-day cycle
Method: KRT-232-114 was a Phase 2 open-label study in which the safety and efficacy of navtemadlin monotherapy was assessed in treatment-naïve patients with MF. […] Median treatment duration was 183.0 days (range, 7-539).

[8] = within the first 1-2 years of treatment
[9] = KRT-232-101A, 240 mg Days 1-7 of 28-day cycle
[10] = KRT-232-101A, 240 mg Days 1-7 of 28-day cycle, listed as Navtemadlin

## N#CC[C@H](C1CCCC1)n1cc(-c2ncnc3[nH]ccc23)cn1 [ruxolitinib, (R)-3-(4-(7H-pyrrolo[2,3-d]pyrimidin-4-yl)-1H-pyrazol-1-yl)-3-cyclopentylpropanenitrile]
[1]
  median OS: 13.2 months
[2]; suboptimal spleen responders, N=253, Week-24 data as proxy for Week 18
  mean SVR: 18%
[2]; suboptimal symptom responders (>0% but <50%)
  mean TSS reduction: 28.5%
[3]; patients with SVR≥25% to <35% versus SVR<10%, 95% CI 0.11-0.61
  hazard ratio for survival: 0.25
[3]; patients with SVR≥25% to <35% versus SVR<10%
  reduction in risk of death: 75%
[3]; patients with SVR≥35% to <50%, 95% CI 0.11-0.56
  hazard ratio for survival: 0.24
MF patients; Verstovsek 2012
  time after initiating treatment by which benefit in SVR and TSS reduction is achieved, then plateau: ≤ 12 weeks
MF patients; ruxolitinib monotherapy
  MF patients with TSS reduction of greater than or equal to 50%: approximately 46%
  responding patients achieving both SVR ≥35% and TSS ≥50%: 20-25%
MF patients; [8]
  effect on bone marrow fibrosis: does not significantly affect
  effect on variant allele frequency (VAF) of driver mutations: does not significantly affect
p21
  p21 expression: did not

## CC(C)[C@@H](CS(=O)(=O)C(C)C)N1C(=O)[C@@](C)(CC(=O)O)C[C@H](c2cccc(Cl)c2)[C@H]1c1ccc(Cl)cc1 [navtemadlin, 2-((3R,5R,6S)-5-(3-chlorophenyl)-6-(4-chlorophenyl)-1-((S)-1-(isopropylsulfonyl)-3-methylbutan-2-yl)-3-methyl-2-oxopiperidin-3-yl) acetic acid]
p21 mRNA
  p21 mRNA: increases
[4]
  tumor growth: dose-dependent reduction
[5]
  mutagenicity / genotoxicity: not mutagenic or genotoxic
  potential for phototoxicity: negligible potential
[6]; [9]
  TSS50 at Week 24 by MFSAF v4.0 (proportion of subjects): 14.3%
  SVR35 at Week 24 by Central Review (proportion of subjects): 14.3%
[6]; [10]
  TSS50 at Week 24 by MFSAF v4.0 (proportion of subjects): 14.3% (2/14)
  SVR35 at Week 24 by Central Review (proportion of subjects): 14.3% (2/14)
[6]; baseline Cycle 1 Day 1 to Week 24, 240 mg Days 1-7 of 28-day cycle
  median reduction in circulating CD34+ cells: 89.02%
[6]; baseline to Week 24, all evaluable subjects (12/44)
  subjects with improvement in fibrosis grade: 27.3%
[6]; pharmacodynamic analysis, KRT-232-101A
  driver gene VAF: VAF reductions
[6]; KRT-232-101A
  circulating CD34+ cells: robustly decreased; also recorded: reduced
[6]; KRT-232-101A, listed as Navtemadlin
  circulating CD34+ cells: decreased
[7]; n = 14
  SVR35 at Week 24 by Central Review (proportion of subjects): 14.3%
  TSS50 at Week 24 by MFSAF v4.0 (proportion of subjects): 28.6%
[7]; n = 14, listed as Navtemadlin
  SVR35 at Week 24 by Central Review (proportion of subjects): 14.3% (2/14)
  TSS50 at Week 24 by MFSAF v4.0 (proportion of subjects): 28.6% (4/14)
p21
  p21 expression: markedly increased
